From ChEMBL document CHEMBL6092221, “Discovery of a Novel Macrocyclic Noncovalent CDK7 Inhibitor for Cancer Therapy” (J Med Chem, 2024) come the findings set out here.

Structures are written as SMILES.

In general, IC50 refers to the midpoint of a concentration-inhibition curve. What is called Kd is a measure of binding affinity in units of concentration. A word on the efflux ratio: it is a quotient of directional permeabilities that is used to spot active efflux. One may read the bioavailability as dose-corrected exposure relative to a reference, in per cent. A low value points to poor availability. The Cmax is the maximum level reached in the sampled fluid or tissue. One may read the AUC(0-t) as exposure summed from dosing to a finite time, without extrapolation to infinity. A higher AUC(0-t) goes with high exposure. For orientation: half-life means the time in which the quantity being followed falls by half. High values mean slow loss, low ones fast loss. A word on the clearance: it is the rate of elimination divided by the concentration. A low value points to inefficient removal. By AUC(0-inf) is commonly meant total exposure, with the tail of the curve extrapolated.

The subject of one data set is HCC70. Kind of data set: cells. Particulars: Homo sapiens, HCC70, 72 h.
A further data set deals with CDK7/Cyclin H/MNAT1 (Homo sapiens, UniProt P50613). Put plainly: Inhibition of CDK7/CyclinH/MAT1 (unknown origin) in presence of ATP by kinase activity assay. In kind it is protein-complex assay.
CDK7/Cyclin H/MNAT1, sequence (P51946 whole entry): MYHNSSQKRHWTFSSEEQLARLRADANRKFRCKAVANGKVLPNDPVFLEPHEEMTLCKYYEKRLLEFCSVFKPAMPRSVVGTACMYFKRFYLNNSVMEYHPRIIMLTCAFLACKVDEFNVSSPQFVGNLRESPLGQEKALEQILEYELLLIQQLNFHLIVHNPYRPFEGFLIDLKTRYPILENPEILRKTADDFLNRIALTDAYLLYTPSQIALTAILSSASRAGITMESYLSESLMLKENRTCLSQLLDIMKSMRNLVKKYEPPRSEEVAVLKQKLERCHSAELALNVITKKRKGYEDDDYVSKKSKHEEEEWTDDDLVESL
CDK7/Cyclin H/MNAT1, sequence (P50613 whole entry): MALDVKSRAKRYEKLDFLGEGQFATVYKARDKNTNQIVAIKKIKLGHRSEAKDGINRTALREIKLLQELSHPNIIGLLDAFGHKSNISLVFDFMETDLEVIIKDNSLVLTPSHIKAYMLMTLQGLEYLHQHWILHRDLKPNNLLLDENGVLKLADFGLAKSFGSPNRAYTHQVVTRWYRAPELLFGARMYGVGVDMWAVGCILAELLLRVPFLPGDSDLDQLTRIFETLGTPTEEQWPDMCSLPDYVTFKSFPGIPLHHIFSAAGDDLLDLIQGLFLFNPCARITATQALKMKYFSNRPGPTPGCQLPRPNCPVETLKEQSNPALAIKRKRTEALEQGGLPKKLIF
CDK7/Cyclin H/MNAT1, sequence (P51948 whole entry, further chain): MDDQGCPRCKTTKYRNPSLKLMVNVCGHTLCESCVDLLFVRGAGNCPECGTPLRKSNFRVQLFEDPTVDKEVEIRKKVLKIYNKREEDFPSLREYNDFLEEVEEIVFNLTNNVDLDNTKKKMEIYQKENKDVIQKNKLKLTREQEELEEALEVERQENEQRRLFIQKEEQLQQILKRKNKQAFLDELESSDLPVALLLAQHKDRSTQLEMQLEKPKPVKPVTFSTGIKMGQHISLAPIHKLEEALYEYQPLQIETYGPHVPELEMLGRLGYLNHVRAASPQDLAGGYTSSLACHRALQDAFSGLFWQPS
In data set [1] the target is Cyclin-dependent kinase 7/ cyclin H (Homo sapiens, UniProt P50613). Put plainly: Binding affinity to CDK7/CyclinH (unknown origin) assessed as dissociation constant by SPR assay. Format: protein-complex assay. (In general: SPR reads the build-up and loss of mass on a sensor chip optically.)
Cyclin-dependent kinase 7/ cyclin H, sequence (P51946 whole entry): as the sequence (P51946 whole entry) above
Cyclin-dependent kinase 7/ cyclin H, sequence (P50613 whole entry): as the sequence (P50613 whole entry) above
Data set [2] is described as follows: Efflux ratio of permeability in human Caco-2 cells. In kind it is ADME, cell-based. Background: Passage across Caco-2 layers is used to estimate intestinal permeability.
Data set [3] can be described thus: Oral bioavailability in female Balb/c nude mouse at 5 mg/kg. In kind it is ADME, organism-based. Particulars: in vivo.
Data set [4] is described as follows: Cmax in female Balb/c nude mouse at 5 mg/kg, po. In kind it is ADME, organism-based. The note with it: in vivo.
A short description of data set [5]: AUC(0 to t) in female Balb/c nude mouse at 5 mg/kg, po. Particulars: in vivo. Format: ADME, organism-based.
Data set [6] in a line: Half life in female Balb/c nude mouse at 5 mg/kg, po. Format: ADME, organism-based. Particulars: in vivo.
Another data set concerns OVCAR-3. Put plainly: cells. The note with it: Homo sapiens, OVCAR-3, 72 h.
Data set [7] can be described thus: Clearance in female Balb/c nude mouse at 1 mg/kg, iv. Particulars: in vivo. Format: ADME, organism-based.
Data set [8] is described as follows: Volume of distribution at steady state in female Balb/c nude mouse at 1 mg/kg, iv. Particulars: in vivo, read-out: Vdss. In kind it is ADME, organism-based.
A short description of data set [9]: Permeability in human Caco-2 cells. In kind it is ADME, cell-based. The note with it: read-out: permeability.
A short description of data set [10]: Metabolic stability in mouse liver microsomes assessed as intrinsic clearance. The note with it: read-out: CLH. In kind it is ADME, Microsome. (Liver microsomes are vesicles of endoplasmic reticulum, rich in cytochrome P450 enzymes.)
Data set [11] is described as follows: AUC(0 to infinity) in female Balb/c nude mouse at 1 mg/kg, iv. In kind it is ADME, organism-based. Particulars: in vivo.
Data set [12] is described as follows: Half life in female Balb/c nude mouse at 10 mg/kg, po. In kind it is ADME, organism-based. The note with it: in vivo.
The nature of data set [13]: AUC(0 to infinity) in female Balb/c nude mouse at 10 mg/kg, po. In kind it is ADME, organism-based. Particulars: in vivo.
Data set [14] in a line: Oral bioavailability in female Balb/c nude mouse at 10 mg/kg. In kind it is ADME, organism-based. Particulars: in vivo.
Data set [15] in a line: Cmax in female Balb/c nude mouse at 10 mg/kg, po. The note with it: in vivo. Format: ADME, organism-based.

Description for HCC70: Antiproliferative activity against human HCC70 cells assessed as inhibition of cell proliferation incubated for 72 hrs by celltiter-glo assay
Description for OVCAR-3: Antiproliferative activity against human OVCAR-3 cells assessed as inhibition of cell proliferation incubated for 72 hrs by celltiter-glo assay

`O=C1NCCCCN[C@@H]2CC[C@H](C2)Nc2ncc(C(F)(F)F)c(n2)-c2c[nH]c3cc1ccc23`: the values for the half-maximal inhibitory concentration (IC50) with HCC70 and at CDK7/Cyclin H/MNAT1 were 207 nM and 4.6 nM, respectively. The dissociation constant Kd in [1] came to 0.14 nM.

With `CP(C)(=O)c1c2ccc3c(c[nH]c13)-c1nc(ncc1C(F)(F)F)N[C@H]1CC[C@@H](C1)NCCCCCCNC2=O`, the 50% inhibitory concentration (IC50) with HCC70 was found to be 422 nM.

Take `CN1CCCCN(C)[C@H]2CC[C@@H](C2)Nc2ncc(C(F)(F)F)c(n2)-c2c[nH]c3c(P(C)(C)=O)c(ccc23)C1=O`: the efflux ratio in data set [2] was 19.2. The compound further showed a bioavailability in data set [3] of 22.7%. Besides, the peak level in data set [4] (Cmax) was 105 ng/mL. Besides, the AUC(0-t) in data set [5] was 302 ng·h/mL. The half-life in data set [6] is 2.1 h. In addition, the half-inhibitory concentration (IC50) in the data set with HCC70 came to 22 nM; in the data set with OVCAR-3, 105 nM. This compound came in with a clearance in data set [7] of 62.5 mL/min/kg. Further, the Vd in data set [8] worked out at 5.6 L/kg. The Papp in data set [9] was 0.72 ×10⁻⁶ cm/s.

Turning to `CP(C)(=O)c1c2ccc3c(c[nH]c13)-c1nc(ncc1C(F)(F)F)N[C@H]1CC[C@@H](C1)NCCCCNC2=O`, in data set [2], the efflux ratio is over 15.1. The CLint scaled in data set [10] was under 13.4 mL/min/kg. Also, the area under the curve AUC(0-inf) is 333 ng·h/mL in data set [11] and 26 ng·h/mL in data set [13]. The compound further showed a half-life in [12] of 1.4 h. The midpoint of inhibition with HCC70, the IC50, lay at 33 nM. The clearance in data set [7] worked out at 49.3 mL/min/kg. Also, in data set [14], the bioavailability was determined as 0.7%. The Vd in data set [8] came out at 3.6 L/kg. Moreover, the equilibrium dissociation constant (Kd) in data set [1] worked out at 0.16 nM. In addition, the Papp in data set [9] is under 0.48 ×10⁻⁶ cm/s. Also, the Cmax in data set [15] came to 16.8 ng/mL.

`CN1C[C@@H](F)CCN(C)[C@H]2CC[C@@H](C2)Nc2ncc(C(F)(F)F)c(n2)-c2c[nH]c3c(P(C)(C)=O)c(ccc23)C1=O`: in data set [2], the efflux ratio turned out to be 11.2. Besides, in [3], the bioavailability was found to be 24.3%. This compound returned a Cmax in [4] of 170 ng/mL. In [5], this compound returned an AUC(0-t) of 365 ng·h/mL. The half-life in [6] is 2.4 h. Further, the results for the IC50 in the data set on HCC70 and in the data set with OVCAR-3 were 66.5 nM and 59.1 nM, respectively. The clearance in data set [7] amounted to 55.3 mL/min/kg. In [8], the Vd stood at 3.6 L/kg. The Kd in [1] came to 0.12 nM. Besides, the Papp in data set [9] was 1.91 ×10⁻⁶ cm/s.

As to `O=C1NCCOCCN2CC[C@@H](C2)Nc2ncc(C(F)(F)F)c(n2)-c2c[nH]c3cc1ccc23`, the values for the concentration for half-maximal inhibition (IC50) in the data set with HCC70 and on CDK7/Cyclin H/MNAT1 were 1820 nM and 11 nM, respectively.
